Data on 1 compound can be found in US8968780B2, “Stabilized pharmaceutical composition” (Egis Gyogyszergyar Nyilvanosan Muekoedoe Reszvenytarsasag, priority 2010, dated 2015).

Data set [1] in a line: Preformulation stability of pregabalin with physically admixed non-reducing saccharides (appearance, scent). In kind it is physicochemical.

Like-named read-outs stand apart in the source and are kept apart here.

Take `CC(C)CC(CN)CC(=O)O` (stereo not drawn) [Pregabalin, 5-methyl-3-aminomethyl-hexanoic acid]: the Scent result in data set [1] (40° C./75% RH/4 Weeks/open), in data set [1] (50° C./4 Weeks/closed) and in data set [1] (Initial) was “Odourless” each time. Further, the “% Known Impurities Lactum RRT = 3.91” value reads like this: (40° C./75% RH/4 Weeks/open) 0.004%; (60° C./2 Weeks/closed) 0.006%; (Initial) less than 0.0003%.
